Test results: patent US9365588B2, “Benzoxazines as modulators of ion channels” (Vertex Pharmaceuticals Incorporated, priority 2011, dated 2016)

These compounds were tested against human NaV 1.7 (Homo sapiens, UniProt Q15858) (assay: E-VIPR optical membrane potential assay with electrical stimulation). Settings: sodium channel inhibition; read-out: Binned Activity Data (IC50).
Type: cell-based
Procedure, shortened: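 Membrane-potential read-out: background-subtracted 460 nm/580 nm ratio during a 9 s current-controlled stimulus, 400 Hz scan. Before stimulation, NaV1.7-HEK cells carried coumarin/oxonol dye and compound (final DMSO 0.625%) for 20–35 min at room temperature; tetracaine 125 μM served as positive control.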

human NaV 1.7, sequence (Q15858 whole entry): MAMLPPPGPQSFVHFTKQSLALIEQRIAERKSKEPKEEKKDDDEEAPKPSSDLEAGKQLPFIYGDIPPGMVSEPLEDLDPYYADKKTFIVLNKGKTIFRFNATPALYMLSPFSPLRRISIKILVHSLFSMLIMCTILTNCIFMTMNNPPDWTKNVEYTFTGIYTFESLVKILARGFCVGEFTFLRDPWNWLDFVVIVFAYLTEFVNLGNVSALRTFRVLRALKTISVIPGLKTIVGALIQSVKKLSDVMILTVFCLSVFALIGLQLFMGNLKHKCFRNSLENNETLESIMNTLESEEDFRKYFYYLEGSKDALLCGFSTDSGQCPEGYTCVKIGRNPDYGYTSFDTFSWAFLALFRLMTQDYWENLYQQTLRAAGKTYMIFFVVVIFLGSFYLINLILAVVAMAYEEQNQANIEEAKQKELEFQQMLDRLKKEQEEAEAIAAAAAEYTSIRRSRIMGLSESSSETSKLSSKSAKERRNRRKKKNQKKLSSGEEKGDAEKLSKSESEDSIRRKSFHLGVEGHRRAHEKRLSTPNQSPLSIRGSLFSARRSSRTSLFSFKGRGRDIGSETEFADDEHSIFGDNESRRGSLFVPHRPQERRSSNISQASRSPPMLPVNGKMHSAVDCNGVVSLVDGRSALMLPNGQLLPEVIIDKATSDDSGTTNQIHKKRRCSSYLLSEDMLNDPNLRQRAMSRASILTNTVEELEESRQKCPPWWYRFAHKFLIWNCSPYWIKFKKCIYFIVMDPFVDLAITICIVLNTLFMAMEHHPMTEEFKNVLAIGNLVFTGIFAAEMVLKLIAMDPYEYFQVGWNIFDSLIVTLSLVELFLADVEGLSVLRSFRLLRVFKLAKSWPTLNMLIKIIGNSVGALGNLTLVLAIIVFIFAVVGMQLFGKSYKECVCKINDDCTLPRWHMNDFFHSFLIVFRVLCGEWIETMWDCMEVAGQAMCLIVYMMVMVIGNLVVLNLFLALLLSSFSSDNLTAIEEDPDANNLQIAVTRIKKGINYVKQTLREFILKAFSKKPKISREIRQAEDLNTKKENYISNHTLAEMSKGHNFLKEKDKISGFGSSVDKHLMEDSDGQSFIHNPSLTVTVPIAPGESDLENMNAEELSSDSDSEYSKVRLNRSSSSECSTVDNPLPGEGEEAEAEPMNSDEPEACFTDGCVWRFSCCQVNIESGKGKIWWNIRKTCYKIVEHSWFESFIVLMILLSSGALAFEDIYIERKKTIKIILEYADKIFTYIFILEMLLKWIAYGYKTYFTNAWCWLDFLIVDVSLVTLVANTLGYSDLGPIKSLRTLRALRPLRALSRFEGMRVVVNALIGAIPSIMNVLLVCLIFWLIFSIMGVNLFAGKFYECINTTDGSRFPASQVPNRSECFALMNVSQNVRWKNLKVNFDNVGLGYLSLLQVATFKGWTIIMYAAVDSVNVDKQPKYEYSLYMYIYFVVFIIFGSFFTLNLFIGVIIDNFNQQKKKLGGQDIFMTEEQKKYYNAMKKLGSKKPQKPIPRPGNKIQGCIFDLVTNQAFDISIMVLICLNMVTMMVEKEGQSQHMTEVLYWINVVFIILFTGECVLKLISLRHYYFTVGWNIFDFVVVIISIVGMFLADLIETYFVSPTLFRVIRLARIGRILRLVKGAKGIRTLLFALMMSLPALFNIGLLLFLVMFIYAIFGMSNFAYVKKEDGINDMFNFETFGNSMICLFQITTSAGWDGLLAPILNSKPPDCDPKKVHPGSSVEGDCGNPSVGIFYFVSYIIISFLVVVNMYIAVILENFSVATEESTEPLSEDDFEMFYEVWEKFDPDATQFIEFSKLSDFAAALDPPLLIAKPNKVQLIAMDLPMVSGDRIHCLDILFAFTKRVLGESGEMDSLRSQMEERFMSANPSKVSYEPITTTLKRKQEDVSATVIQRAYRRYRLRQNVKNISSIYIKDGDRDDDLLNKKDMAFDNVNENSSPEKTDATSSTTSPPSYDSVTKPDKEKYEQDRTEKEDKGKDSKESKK

Row | IC50 [µM] | SMILES
1 | ≤ 2 | CCS(=O)(=O)c1ccc(C(=O)N2CCC3(CC2)Oc2ccccc2-c2c3cnn2C)cc1C [Compound 821]
2 | ≤ 2 | CCNS(=O)(=O)c1ccc(C(=O)N2CCC3(CC2)Oc2ccccc2-n2c(C(F)(F)F)ccc23)cc1 [Compound 590]
3 | ≤ 2 | Cc1cc(S(=O)(=O)C(C)C)ccc1C(=O)N1CCC2(CC1)Oc1ccccc1-n1c(C#N)ccc12 [Compound 426]
4 | ≤ 2 | COc1ccc(C(=O)N2CCC3(CC2)Oc2cc(Cl)ccc2-n2c(C#N)ccc23)cc1C(F)(F)F [Compound 392]
5 | ≤ 2 | CC(C)(C)c1ccc(C(=O)N2CCC3(CC2)Oc2ccccc2-n2c3ccc2S(C)(=O)=O)cc1 [Compound 265]
6 | ≤ 2 | Cc1cc(C(=O)N2CCC3(CC2)Oc2ccccc2-n2c3ccc2S(C)(=O)=O)ccc1OC(C)C [Compound 554]
7 | ≤ 2 | O=C(c1ccccc1OC(F)F)N1CCC2(CC1)Oc1ccccc1-c1c2cnn1C(F)F [Compound 889]
8 | ≤ 2 | COc1ccc(C(=O)N2CCC3(CC2)Oc2ccccc2-n2cc(C)cc23)cc1C(F)(F)F [Compound 161]
9 | ≤ 2 | O=C(c1cccnc1Oc1ccc(F)cc1)N1CCC2(CC1)Oc1ccccc1-n1c(C(F)(F)F)ccc12 [Compound 472]
10 | ≤ 2 | O=C(c1ccccc1OC(F)F)N1CCC2(CC1)Oc1ccccc1-c1nn(C(F)(F)F)cc12 [Compound 752]
11 | ≤ 2 | COc1cc(C(=O)N2CCC3(CC2)Oc2cc(Cl)ccc2-n2cccc23)ccc1OC[C@H](C)OC [Compound 407]
12 | ≤ 2 | Cn1ncc2c1-c1ccccc1OC21CCN(C(=O)c2cccc3nccnc23)CC1 [Compound 439]
13 | ≤ 2 | CS(=O)(=O)c1cccc(C(=O)N2CCC3(CC2)Oc2cc(Cl)ccc2-n2cccc23)c1 [Compound 513]
14 | ≤ 2 | Cc1nc2cccc(C(=O)N3CCC4(CC3)Oc3cc(Cl)ccc3-n3cccc34)c2o1 [Compound 393]
15 | ≤ 2 | CCc1ccc(C(=O)N2CCC3(CC2)Oc2cc(F)ccc2-n2cccc23)cc1OC [Compound 200]
16 | ≤ 2 | CC(C)c1ccc(C(=O)N2CCC3(CC2)Oc2cc(Cl)ccc2-n2cccc23)c(=O)[nH]1 [Compound 39]
17 | ≤ 2 | CCn1ncc2c1-c1ccccc1OC21CCN(C(=O)c2cccc(F)c2OC(F)F)CC1 [Compound 528]
18 | ≤ 2 | COc1cccc(F)c1C(=O)N1CCC2(CC1)Oc1ccccc1-n1c(C#N)ccc12 [Compound 519]
19 | ≤ 2 | Cc1cc(C(=O)N2CCC3(CC2)Oc2ccccc2-c2[nH]ncc23)ccc1OC(C)C [Compound 500]
20 | ≤ 2 | Cc1cc(C(=O)N2CCC3(CC2)Oc2ccccc2-c2c3cnn2C)ccc1OC(C)(C)C [Compound 610]
21 | ≤ 2 | Cn1ncc2c1-c1ccccc1OC21CCN(C(=O)c2ccccc2OC(F)(F)F)CC1 [Compound 452]
22 | ≤ 2 | COc1cc(F)cc(C(=O)N2CCC3(CC2)Oc2cc(Cl)ccc2-n2cccc23)c1 [Compound 60]
23 | > 5 | CC(C)NC(=O)c1ccc(C(=O)N2CCC3(CC2)Oc2ccccc2-c2c3cnn2C)cc1 [Compound 150]
24 | ≤ 2 | COc1cc(C(=O)N2CCC3(CC2)Oc2cc(F)ccc2-n2cccc23)ccc1C1(O)COC1 [Compound 612]
25 | 2 to 5 | Cc1cc(C(=O)N2CCC3(CC2)Oc2ccccc2-n2c(CN)ccc23)ccc1OC(C)C [Compound 733]

Row | IC50 [µM] | SMILES
26 | ≤ 2 | CC(C)S(=O)(=O)c1ccc(C(=O)N2CCC3(CC2)Oc2ccccc2-n2c(C#N)ccc23)cc1 [Compound 297]
27 | ≤ 2 | O=C(c1ccc(S(=O)(=O)NC2CC2)cc1)N1CCC2(CC1)Oc1ccccc1-n1cccc12 [Compound 209]
28 | ≤ 2 | CS(=O)(=O)c1ccc(C(=O)N2CCC3(CC2)Oc2ccccc2-n2c(C#N)ccc23)cc1C(F)(F)F [Compound 504]
29 | ≤ 2 | C[S+]([O-])c1ccc(C(=O)N2CCC3(CC2)Oc2ccccc2-n2c(C#N)ccc23)cc1C(F)(F)F (centres unmarked) [Compound 684]
30 | ≤ 2 | Cn1ncc2c1-c1cc(F)ccc1OC21CCN(C(=O)c2ccccc2OC(F)F)CC1 [Compound 340]
31 | > 5 | Cn1ncc2c1-c1cc(F)ccc1OC21CCN(C(=O)c2ccccc2C(F)F)CC1 [Compound 309]
32 | ≤ 2 | CCc1ccc(C(=O)N2CCC3(CC2)Oc2ccccc2-n2c(C(F)(F)F)ccc23)cc1OC [Compound 347]
33 | ≤ 2 | COc1cc(Cl)cc(C(=O)N2CCC3(CC2)Oc2cc(Cl)ccc2-n2cccc23)c1 [Compound 29]
34 | 2 to 5 | CCn1ncc2c1-c1cc(F)ccc1OC21CCN(C(=O)c2ccccc2OC)CC1 [Compound 674]
35 | ≤ 2 | CC(C)S(=O)(=O)c1ccc(C(=O)N2CCC3(CC2)Oc2ccccc2-n2c(C(F)(F)F)ccc23)cc1 [Compound 621]
36 | ≤ 2 | Cc1cc(C(C)(C)O)ccc1C(=O)N1CCC2(CC1)Oc1ccccc1-n1c(C#N)ccc12 [Compound 633]
37 | ≤ 2 | Cn1cc2c(n1)-c1ccccc1OC21CCN(C(=O)c2ccc(C(C)(C)O)cc2)CC1 [Compound 230]
38 | 2 to 5 | CCOc1cccc(C(=O)N2CCC3(CC2)Oc2ccccc2-n2c3ccc2S(C)(=O)=O)c1F [Compound 445]
39 | 2 to 5 | Cn1ncc2c1-c1ccccc1OC21CCN(C(=O)c2ccc3c(c2)OC(C)(C)C3)CC1 [Compound 422]
40 | ≤ 2 | COC[C@H](C)Oc1ccc(C(=O)N2CCC3(CC2)Oc2ccccc2-n2cccc23)cc1C(F)(F)F [Compound 95]
41 | 2 to 5 | CC(C)(C(=O)O)S(=O)(=O)c1ccc(C(=O)N2CCC3(CC2)Oc2ccccc2-n2c(C(F)(F)F)ccc23)cc1 [Compound 12]
42 | ≤ 2 | CC(C)(C)S(=O)(=O)c1ccc(C(=O)N2CCC3(CC2)Oc2ccccc2-c2nn(C(F)(F)F)cc23)cc1 [Compound 78]
43 | ≤ 2 | CC(C)C(O)c1ccc(C(=O)N2CCC3(CC2)Oc2ccccc2-c2c3cnn2C)cc1 (centres unmarked) [Compound 711]
44 | ≤ 2 | COc1cccc(C(=O)N2CCC3(CC2)Oc2ccccc2-c2c3cnn2C)c1OC [Compound 831]
45 | 2 to 5 | N#Cc1ccc2n1-c1ccccc1OC21CCN(C(=O)c2ccc(S(=O)(=O)NCCO)cc2)CC1 [Compound 17]
46 | ≤ 2 | N#Cc1cc(F)cc(C(=O)N2CCC3(CC2)Oc2cc(Cl)ccc2-n2cccc23)c1 [Compound 304]
47 | ≤ 2 | COc1cc(C(=O)N2CCC3(CC2)Oc2ccccc2-c2c3cnn2C)ccc1OCC(C)C [Compound 47]
48 | 2 to 5 | COc1ccc(C(=O)N2CCC3(CC2)Oc2ccccc2-n2cccc23)cc1S(N)(=O)=O [Compound 542]
49 | ≤ 2 | COc1cc(C(=O)N2CCC3(CC2)Oc2ccccc2-n2cccc23)ccc1OC1CCC(O)C1 (centres unmarked) [Compound 678]
50 | > 5 | C[C@](O)(CO)c1ccc(C(=O)N2CCC3(CC2)Oc2ccccc2-n2c(C(F)(F)F)ccc23)cc1 [Compound 231]

Row | IC50 [µM] | SMILES
51 | ≤ 2 | CC(C)Oc1ccc(C(=O)N2CCC3(CC2)Oc2ccccc2-c2c3cnn2C)cc1C#N [Compound 306]
52 | ≤ 2 | Cc1cc(C(=O)N2CCC3(CC2)Oc2ccccc2-n2c(C(F)(F)F)ccc23)ccc1S(C)(=O)=O [Compound 123]
53 | ≤ 2 | COc1cc(C(=O)N2CCC3(CC2)Oc2ccccc2-n2cccc23)ccc1OC[C@@H](C)OC [Compound 203]
54 | ≤ 2 | COCCOc1ccc(C(=O)N2CCC3(CC2)Oc2ccccc2-n2c(C(F)(F)F)ccc23)cc1OC [Compound 223]
55 | ≤ 2 | CC(C)(C)c1ccc(C(=O)N2CCC3(CC2)Oc2ccccc2-n2c(C#N)ccc23)cc1 [Compound 295]
56 | 2 to 5 | Cc1ccccc1C(=O)N1CCC2(CC1)Oc1ccccc1-c1c2cnn1C [Compound 217]
57 | ≤ 2 | COc1cc(C(=O)N2CCC3(CC2)Oc2ccccc2-n2cccc23)ccc1O[C@H]1CCOC1 [Compound 837]
58 | 2 to 5 | CC(C)(C)[S@+]([O-])c1ccc(C(=O)N2CCC3(CC2)Oc2ccccc2-n2c(C(F)(F)F)ccc23)cc1 [Compound 883]
59 | ≤ 2 | CC(C)Oc1ccc(C(=O)N2CCC3(CC2)Oc2ccccc2-c2c3cnn2C)cc1F [Compound 650]
60 | ≤ 2 | COc1cc(C(F)(F)F)ccc1C(=O)N1CCC2(CC1)Oc1ccccc1-c1c2cnn1C [Compound 574]
61 | ≤ 2 | CC(C)Oc1ccc(C(=O)N2CCC3(CC2)Oc2ccccc2-n2c(C(F)(F)F)ccc23)cc1CO [Compound 531]
62 | ≤ 2 | CC(C)Oc1ccc(C(=O)N2CCC3(CC2)Oc2ccccc2-n2c(C#N)ccc23)cc1F [Compound 42]
63 | ≤ 2 | O=C(c1ccc(S(=O)(=O)C(F)F)cc1)N1CCC2(CC1)Oc1ccccc1-n1c(C(F)(F)F)ccc12 [Compound 778]
64 | > 5 | Cn1ncc2c1-c1ccccc1OC21CCN(C(=O)c2ccc(Cl)cc2S(C)(=O)=O)CC1 [Compound 667]
65 | ≤ 2 | COc1cc(C(=O)N2CCC3(CC2)Oc2cc(Cl)ccc2-n2cccc23)ccc1O[C@@H]1CCC[C@H]1O [Compound 348]
66 | > 5 | N#Cc1ccc2n1-c1ccccc1OC21CCN(C(=O)c2ccc(OC(F)F)cc2)CC1 [Compound 2]
67 | ≤ 2 | COc1cc(C(C)(C)O)ccc1C(=O)N1CCC2(CC1)Oc1ccccc1-n1c(C#N)ccc12 [Compound 622]
68 | ≤ 2 | COc1cc(C(=O)N2CCC3(CC2)Oc2cc(F)ccc2-n2cccc23)ccc1C(C)(C)OC [Compound 567]
69 | ≤ 2 | O=C(c1ccc(OC2COC2)c(F)c1)N1CCC2(CC1)Oc1cc(Cl)ccc1-n1cccc12 [Compound 777]
70 | ≤ 2 | COc1cc(C(=O)N2CCC3(CC2)Oc2cc(Cl)ccc2-n2cccc23)ccc1F [Compound 63]
71 | ≤ 2 | O=C(c1ccc(O[C@@H]2CCOC2)c(C(F)(F)F)c1)N1CCC2(CC1)Oc1ccccc1-n1cccc12 [Compound 170]
72 | ≤ 2 | COc1cc(C(=O)N2CCC3(CC2)Oc2cc(Cl)ccc2-n2cccc23)ccc1OCCOC(F)(F)F [Compound 291]
73 | ≤ 2 | CC(=O)c1ccc2n1-c1ccccc1OC21CCN(C(=O)c2ccc(S(C)(=O)=O)c(C)c2)CC1 [Compound 357]
74 | ≤ 2 | Cn1ncc2c1-c1ccc(Cl)cc1OC21CCN(C(=O)c2cccc(F)c2OC(F)F)CC1 [Compound 108]
